Laboratory results from patent publication US20250186405A1, “Compound For Use In Treating Narcolepsy” (Alkermes, Inc., priority 2023, published 2025).
“And” between values parts separate entries of the source, which are not always exact repeats. Equal values may be shown once.

Key:
[1] = system: subjects with narcolepsy type-2 (NT2); assay: Part 5 NT2: Maintenance of Wakefulness Test (MWT) sleep latency; type: in vivo, human; settings: for Change from Day −1 in Average Sleep Latency on the MWT, LSM / Change from Day −1 in Average Sleep Latency on the MWT, LSM difference vs placebo: NT2, N = 9; for Average Sleep Latency on the MWT, Change from Day −1, Mean (SD) / Average Sleep Latency on the MWT, Change from Day −1, Median / Average Sleep Latency on the MWT, Dosing Day, Mean (SD) / Average Sleep Latency on the MWT, Dosing Day, Median: NT2, n = 9; for LS mean difference vs placebo in change from baseline, average MWT sleep latency: 2-8 hours post-dose
Method: On Day −1, approximately 25 hours prior to study drug administration (on Day 1), baseline assessments for Maintenance of Wakefulness Test (MWT) began and were collected in a series of trials over approximately 10 hours.
At specified time points (Parts 5 and 6), MWT assessments were performed and took up to 40 minutes to complete. During the MWT trials, subjects were seated in a bed or reclining chair in a darkened room with their back and head supported such that their neck is not uncomfortably flexed or extended. Subjects were instructed to sit still and remain awake for as long as possible during each 40-minute trial. If the subject fell asleep during a trial, they were awakened, and the trial was terminated. […] Upon completion of the trial, the subject returned to a normal environment/ambiance and remained awake (and were awakened if they fall asleep) until the next trial.
Once Parts 5 and 6 were completed, the EEG data recorded during the MWT, as well as the technician notes, were transferred to the EEG vendor for further analysis. Technician notes were also maintained for transfer to Sponsor at the end of the study. A precise assessment of sleep latency was conducted by an experienced sleep scorer from the EEG vendor, and spectral analysis was performed on the EEG data recorded during MWT to assess absolute and relative powers in standard frequency bands (i.e., qEEG). All raw data and analysis results were transferred to the Sponsor.
For the changes from baseline in average sleep latency across the first 4 sessions of the MWT, descriptive statistics were provided by dose level. Mixed model with repeated measure (MMRM) for the 4-period crossover design were conducted with the change from baseline as a dependent variable, and the dose level and the period as fixed factors. The differences in the least square means between each Compound A dose level and the placebo (each Compound A dose level—the placebo), and the 2-sided CIs were provided.
Evaluation of Compound A effects on average sleep latency across 4 timepoints of MWT (2-, 4-, 6-, and 8-hours post-dose) has been conducted at each of the crossover periods (Days 1, 3, 5 and 7), testing placebo, and active dose levels of 5, 12, and 25 mg in the patients with NT2 compared to placebo. At pre-dose baseline on Day −1, MWT assessment was taken at similar times (2-, 4-, 6-, and 8-hours) as planned on dosing days assuming a dosing time of approximately 9 AM. Mean (SD) of baseline MWT average across the 4 time points on Day −1 was 14.31 (11.201), with high variability observed for NT2 subjects.

[2] = system: healthy adult subjects; settings: human, in vivo
Method: Part 1 of the study is a SAD evaluation in healthy subjects consisting of 6 cohorts: Cohorts 1-6 received powder-in-capsule or matching placebo. There were approximately 8 subjects per cohort. Dose levels were as follows:
No food was given for at least 4 hours after dose administration. Water was allowed ad libitum except for the time 1 hour before and 1 hour after study drug administration. Safety assessments including AEs, safety ECGs, vital signs, and clinical laboratory tests were conducted, and plasma PK samples were collected.
Adverse events (AEs) and serious adverse events (SAEs) were monitored continuously until the completion of the study.

[3] = system: subjects with narcolepsy type-2 (NT2); assay: Part 5 NT2: Karolinska Sleepiness Scale (KSS); type: in vivo, human; settings: for Change From Day −1 in Average Karolinska Sleepiness Scale, LSM difference vs placebo: NT2, N = 9; for Change From Day −1 in Average Karolinska Sleepiness Scale, LSM: NT2, N = 9, average of 1, 2, 4, 6, 8 h
Method: At points within the study, subjects were asked to rate their sleepiness using the KSS with regard to the level of sleepiness they experienced over the past 5 minutes.
The KSS is a validated, self-reported outcome measure of subjective sleepiness. The KSS was developed as a one-dimensional measure of sleepiness and has been validated against assessments like EEG and electrooculography activity (Akerstedt and Gillberg 1990). The KSS is comprised of a single question that asks the subject to rate their sleepiness in the immediately preceding 5 minutes on a 9-point scale where 1=extremely alert and 9=very sleepy, great effort to keep awake, fighting sleep. The KSS takes approximately 10 to 15 seconds to complete. Thus, the KSS is well suited for repeated measurement at short intervals as it assesses situational sleepiness within a short timeframe.
The PD parameters in the POC evaluation (e.g., changes from baseline in sleep latency on MWT, number of errors on SART and level of sleepiness on KSS at matched time points) were summarized using descriptive statistics for each time point by dose level.

## CS(=O)(=O)N[C@H]1CCCN2C(=O)COc3ccccc3C3CCC(CC3)OCC12 (stereo partly drawn) [Compound A, N-[(4S,4aR,7α,10α)-1,2,3,4,4a,5,7,8,9,10,16,17-dodecahydro-17-oxo-7,10-ethanopyrido[1,2-d][1,7,4]benzodioxaazacyclotridecin-4-yl]methanesulfonamide]
[1]; 5 mg
  Change from Day −1 in Average Sleep Latency on the MWT, LSM: 11.68 min
  Change from Day −1 in Average Sleep Latency on the MWT, LSM difference vs placebo: 11.60 min
  Average Sleep Latency on the MWT, Change from Day −1, Mean (SD): 11.65 (14.736) minutes
  Average Sleep Latency on the MWT, Change from Day −1, Median: 8.50 min
  Average Sleep Latency on the MWT, Dosing Day, Mean (SD): 25.95 (12.409) minutes
  Average Sleep Latency on the MWT, Dosing Day, Median: 26.63 min
[1]; 12 mg
  Change from Day −1 in Average Sleep Latency on the MWT, LSM: 18.63 min
  Change from Day −1 in Average Sleep Latency on the MWT, LSM difference vs placebo: 18.55 min
  Average Sleep Latency on the MWT, Change from Day −1, Mean (SD): 18.63 (10.892) minutes
  Average Sleep Latency on the MWT, Change from Day −1, Median: 19.50 min
  Average Sleep Latency on the MWT, Dosing Day, Mean (SD): 32.93 (9.836) minutes
  Average Sleep Latency on the MWT, Dosing Day, Median: 40.00 min
[1]; 25 mg
  Change from Day −1 in Average Sleep Latency on the MWT, LSM: 21.04 min
  Change from Day −1 in Average Sleep Latency on the MWT, LSM difference vs placebo: 20.96 min
  Average Sleep Latency on the MWT, Change from Day −1, Mean (SD): 21.14 (12.126) minutes
  Average Sleep Latency on the MWT, Change from Day −1, Median: 17.25 min
  Average Sleep Latency on the MWT, Dosing Day, Mean (SD): 35.44 (7.720) minutes
  Average Sleep Latency on the MWT, Dosing Day, Median: 40.00 min
[1]; NT2, 5 mg
  LS mean difference vs placebo in change from baseline, average MWT sleep latency: 11.60 min and 11.6 min and 12 min
[1]; NT2, 12 mg
  observed mean MWT score over 8-hour period post-dose: ≥ 30 min
  LS mean difference vs placebo in change from baseline, average MWT sleep latency: 18.55 min and 18.6 min and 19 min
[1]; NT2, 25 mg
  observed mean MWT score over 8-hour period post-dose: ≥ 30 min
  LS mean difference vs placebo in change from baseline, average MWT sleep latency: 20.96 min and 21.0 min and 21 min
[2]
  TEAE COVID-19: 3 n
[3]; 5 mg
  Change From Day −1 in Average Karolinska Sleepiness Scale, LSM difference vs placebo: −0.31
  Change From Day −1 in Average Karolinska Sleepiness Scale, LSM: −0.68
[3]; 12 mg
  Change From Day −1 in Average Karolinska Sleepiness Scale, LSM difference vs placebo: −0.60
  Change From Day −1 in Average Karolinska Sleepiness Scale, LSM: −0.97
[3]; 25 mg
  Change From Day −1 in Average Karolinska Sleepiness Scale, LSM difference vs placebo: −1.42
  Change From Day −1 in Average Karolinska Sleepiness Scale, LSM: −1.78
[3]; NT2, 5 mg
  LS mean difference vs placebo in change from Day −1, average KSS: −0.31
[3]; NT2, 12 mg
  LS mean difference vs placebo in change from Day −1, average KSS: −0.60
[3]; NT2, 25 mg
  LS mean difference vs placebo in change from Day −1, average KSS: −1.42
